Laboratory results: patent US11753445B2, “Therapeutic peptides” (COHBAR, INC., priority 2016, dated 2023)
Peptide text beside a SMILES is read from it.

system: 3T3-L1 Adipocytes; experiment: Free fatty acid levels in cultured mouse 3T3-L1 adipocytes, isoproterenol stimulated (Example 2); assay type: cell-based; conditions: test peptides 25 μM; isoproterenol 1 nM
How it was run: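 3T3-L1 cells differentiated 12–17 days into adipocytes, then exposed to test peptides at 25 μM final for 18–20 h, then 1 h, then 3 h with isoproterenol (1 nM) at 37 °C. Free fatty acids in the medium measured colorimetrically at 540 nm, corrected for untreated background and expressed relative to isoproterenol-only cells.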

Compared with `CC[C@H](C)[C@@H]1NC(=O)[C@H](Cc2ccc(O)cc2)NC(=O)CNC(=O)[C@H](CCSC)NC(=O)[C@@H](NC(=O)[C@H](CCC(N)=O)NC(=O)[C@H](Cc2c[nH]c3ccccc23)NC(=O)[C@H](CCCNC(=N)N)NC(=O)[C@H](CCSC)NC(C)=O)CCC(=O)NCCCC[C@@H](C(=O)N[C@@H](CC(C)C)C(=O)N[C@@H](CCCNC(=N)N)C(N)=O)NC(=O)[C@H](CCCNC(=N)N)NC(=O)[C@@H]2CCCN2C(=O)[C@H](Cc2ccc(O)cc2)NC(=O)[C@H](Cc2ccccc2)NC1=O` [compound 227] (HELM PEPTIDE1{[ac].M.R.W.Q.E.M.G.Y.I.F.Y.P.R.K.L.R.[am]}$PEPTIDE1,PEPTIDE1,6:R3-15:R3$$$V2.0), `CC[C@H](C)[C@@H]1NC(=O)[C@H](Cc2ccc(O)cc2)NC(=O)CNC(=O)[C@H](CCSC)NC(=O)[C@H](CCC(=O)O)NC(=O)[C@@H](NC(=O)[C@H](Cc2c[nH]c3ccccc23)NC(=O)[C@H](CCCNC(=N)N)NC(=O)[C@H](CCSC)NC(C)=O)CCC(=O)NCCCC[C@@H](C(=O)N[C@@H](CCCNC(=N)N)C(=O)N[C@@H](CCCCN)C(=O)N[C@@H](CC(C)C)C(=O)N[C@@H](CCCNC(=N)N)C(N)=O)NC(=O)[C@H](Cc2ccc(O)cc2)NC(=O)[C@H](Cc2ccccc2)NC1=O` [compound 228] (HELM PEPTIDE1{[ac].M.R.W.E.E.M.G.Y.I.F.Y.K.R.K.L.R.[am]}$PEPTIDE1,PEPTIDE1,5:R3-13:R3$$$V2.0) is higher in “Free Fatty Acid Levels in 3T3-L1 Adipocytes Expressed as a Percent of Isoproterenol Control: Percent of Control Value”: 24.5% for the first, 69.9% for the second.

Compared with `CC[C@H](C)[C@H](NC(=O)[C@H](Cc1ccc(O)cc1)NC(=O)CNC(=O)[C@H](CCC(=O)O)NC(=O)[C@H](CCC(=O)O)NC(=O)[C@H](CCC(N)=O)NC(=O)[C@H](Cc1c[nH]c2ccccc12)NC(=O)[C@H](CCCNC(=N)N)NC(=O)[C@@H](C)N)C(=O)N[C@@H](Cc1ccccc1)C(=O)N[C@@H](Cc1ccc(O)cc1)C(=O)N1CCC[C@H]1C(=O)N[C@@H](CCCNC(=N)N)C(=O)N[C@@H](CCCCN)C(=O)N[C@@H](CC(C)C)C(=O)N[C@@H](C)C(=O)O` [compound 230] (HELM PEPTIDE1{[dA].R.W.Q.E.E.G.Y.I.F.Y.P.R.K.L.A}$$$$V2.0), `CC[C@H](C)[C@H](NC(=O)[C@H](Cc1ccc(O)cc1)NC(=O)CNC(=O)[C@H](CCC(=O)O)NC(=O)[C@H](CCC(=O)O)NC(=O)[C@H](CCC(N)=O)NC(=O)[C@H](Cc1c[nH]c2ccccc12)NC(=O)[C@H](CCCNC(=N)N)NC(=O)[C@@H](C)N)C(=O)N[C@@H](Cc1ccccc1)C(=O)N[C@@H](Cc1ccc(O)cc1)C(=O)N1CCC[C@H]1C(=O)N[C@@H](CCCNC(=N)N)C(=O)N[C@@H](CCCCN)C(=O)N[C@@H](CC(C)C)C(=O)N[C@H](C)C(=O)O` [compound 231] (HELM PEPTIDE1{[dA].R.W.Q.E.E.G.Y.I.F.Y.P.R.K.L.[dA]}$$$$V2.0) is lower in “Free Fatty Acid Levels in 3T3-L1 Adipocytes Expressed as a Percent of Isoproterenol Control: Percent of Control Value”: 94.5% for the first, 61.6% for the second.

First: CC[C@H](C)[C@H](NC(=O)[C@H](Cc1ccc(O)cc1)NC(=O)CNC(=O)[C@H](CCC(=O)O)NC(=O)[C@H](CCC(=O)O)NC(=O)[C@H](CCC(N)=O)NC(=O)[C@H](Cc1c[nH]c2ccccc12)NC(=O)[C@H](CCCNC(=N)N)NC(=O)[C@@H](C)N)C(=O)N[C@@H](Cc1ccccc1)C(=O)N[C@@H](Cc1ccc(O)cc1)C(=O)N1CCC[C@H]1C(=O)N[C@@H](CCCNC(=N)N)C(=O)O [compound 232] (HELM PEPTIDE1{[dA].R.W.Q.E.E.G.Y.I.F.Y.P.R}$$$$V2.0)
Second: CC[C@H](C)[C@H](NC(=O)[C@H](Cc1ccc(O)cc1)NC(=O)CNC(=O)[C@H](CCC(=O)O)NC(=O)[C@H](CCC(=O)O)NC(=O)[C@H](CCC(N)=O)NC(=O)[C@H](Cc1c[nH]c2ccccc12)NC(=O)[C@H](CCCNC(=N)N)NC(=O)[C@@H](C)N)C(=O)N[C@@H](C)C(=O)N[C@@H](Cc1ccc(O)cc1)C(=O)N1CCC[C@H]1C(=O)N[C@@H](CCCNC(=N)N)C(=O)O [compound 238] (HELM PEPTIDE1{[dA].R.W.Q.E.E.G.Y.I.A.Y.P.R}$$$$V2.0)
The “Free Fatty Acid Levels in 3T3-L1 Adipocytes Expressed as a Percent of Isoproterenol Control: Percent of Control Value” of the first is lower: 46.5% for the first, 52.9% for the second.

Compared with `CC[C@H](C)[C@H](NC(=O)[C@H](Cc1ccc(O)cc1)NC(=O)CNC(=O)[C@H](C)NC(=O)[C@H](CCC(=O)O)NC(=O)[C@H](CCC(N)=O)NC(=O)[C@H](Cc1c[nH]c2ccccc12)NC(=O)[C@H](CCCNC(=N)N)NC(=O)[C@@H](N)CCC(=O)O)C(=O)N[C@@H](Cc1ccccc1)C(=O)N[C@@H](Cc1ccc(O)cc1)C(=O)N1CCC[C@H]1C(=O)N[C@@H](CCCNC(=N)N)C(=O)N[C@@H](CCCCN)C(=O)N[C@@H](CC(C)C)C(=O)N[C@H](C)C(=O)O` [compound 234] (HELM PEPTIDE1{E.R.W.Q.E.A.G.Y.I.F.Y.P.R.K.L.[dA]}$$$$V2.0), `CC[C@H](C)[C@H](NC(=O)[C@H](Cc1ccc(O)cc1)NC(=O)CNC(=O)[C@H](C)NC(=O)[C@H](CCC(=O)O)NC(=O)[C@H](CCC(N)=O)NC(=O)[C@H](Cc1c[nH]c2ccccc12)NC(=O)[C@H](CCCNC(=N)N)NC(=O)[C@@H](N)CCC(=O)O)C(=O)N[C@@H](C)C(=O)N[C@@H](Cc1ccc(O)cc1)C(=O)N1CCC[C@H]1C(=O)N[C@@H](CCCNC(=N)N)C(=O)N[C@@H](CCCCN)C(=O)N[C@@H](CC(C)C)C(=O)N[C@H](C)C(=O)O` [compound 240] (HELM PEPTIDE1{E.R.W.Q.E.A.G.Y.I.A.Y.P.R.K.L.[dA]}$$$$V2.0) is lower in “Free Fatty Acid Levels in 3T3-L1 Adipocytes Expressed as a Percent of Isoproterenol Control: Percent of Control Value”: 73.8% for the first, 48.6% for the second.

Compared with `CC[C@H](C)[C@H](NC(=O)[C@H](Cc1ccc(O)cc1)NC(=O)CNC(=O)[C@H](CCC(=O)O)NC(=O)[C@H](CCC(=O)O)NC(=O)[C@H](CCC(N)=O)NC(=O)[C@H](Cc1c[nH]c2ccccc12)NC(=O)[C@H](CCCNC(=N)N)NC(=O)[C@@H](C)N)C(=O)N[C@@H](C)C(=O)N[C@@H](Cc1ccc(O)cc1)C(=O)N1CCC[C@H]1C(=O)N[C@@H](CCCNC(=N)N)C(=O)N[C@@H](CCCCN)C(=O)N[C@@H](CC(C)C)C(=O)N[C@@H](C)C(=O)O` [compound 236] (HELM PEPTIDE1{[dA].R.W.Q.E.E.G.Y.I.A.Y.P.R.K.L.A}$$$$V2.0), `CC[C@H](C)[C@H](NC(=O)[C@H](Cc1ccc(O)cc1)NC(=O)CNC(=O)[C@H](CCC(=O)O)NC(=O)[C@H](CCC(=O)O)NC(=O)[C@H](CCC(N)=O)NC(=O)[C@H](Cc1c[nH]c2ccccc12)NC(=O)[C@H](CCCNC(=N)N)NC(=O)[C@@H](C)N)C(=O)N[C@@H](C)C(=O)N[C@@H](Cc1ccc(O)cc1)C(=O)N1CCC[C@H]1C(=O)N[C@@H](CCCNC(=N)N)C(=O)N[C@@H](CCCCN)C(=O)N[C@@H](CC(C)C)C(=O)N[C@H](C)C(=O)O` [compound 237] (HELM PEPTIDE1{[dA].R.W.Q.E.E.G.Y.I.A.Y.P.R.K.L.[dA]}$$$$V2.0) is higher in “Free Fatty Acid Levels in 3T3-L1 Adipocytes Expressed as a Percent of Isoproterenol Control: Percent of Control Value”: 74.8% for the first, 85.6% for the second.

Compared with `CC[C@H](C)[C@H](NC(=O)[C@H](Cc1ccc(O)cc1)NC(=O)CNC(=O)[C@H](C)NC(=O)[C@H](CCC(=O)O)NC(=O)[C@H](CCC(N)=O)NC(=O)[C@H](Cc1c[nH]c2ccccc12)NC(=O)[C@H](CCCNC(=N)N)NC(=O)[C@@H](C)N)C(=O)N[C@@H](Cc1ccccc1)C(=O)N[C@@H](CCC(=O)O)C(=O)N1CCC[C@H]1C(=O)N[C@@H](CCCNC(=N)N)C(=O)N[C@@H](CCCCN)C(=O)N[C@@H](CC(C)C)C(=O)N[C@@H](C)C(=O)O` [compound 242] (HELM PEPTIDE1{[dA].R.W.Q.E.A.G.Y.I.F.E.P.R.K.L.A}$$$$V2.0), `CC[C@H](C)[C@H](NC(=O)[C@H](Cc1ccc(O)cc1)NC(=O)CNC(=O)[C@H](C)NC(=O)[C@H](CCC(=O)O)NC(=O)[C@H](CCC(N)=O)NC(=O)[C@H](Cc1c[nH]c2ccccc12)NC(=O)[C@H](CCCNC(=N)N)NC(=O)[C@@H](C)N)C(=O)N[C@@H](Cc1ccccc1)C(=O)N[C@@H](CCC(=O)O)C(=O)N1CCC[C@H]1C(=O)N[C@@H](CCCNC(=N)N)C(=O)N[C@@H](CCCCN)C(=O)N[C@@H](CC(C)C)C(=O)N[C@H](C)C(=O)O` [compound 243] (HELM PEPTIDE1{[dA].R.W.Q.E.A.G.Y.I.F.E.P.R.K.L.[dA]}$$$$V2.0) is higher in “Free Fatty Acid Levels in 3T3-L1 Adipocytes Expressed as a Percent of Isoproterenol Control: Percent of Control Value”: 64.9% for the first, 82.3% for the second.

Compared with `CC[C@H](C)[C@H](NC(=O)[C@H](Cc1ccc(O)cc1)NC(=O)CNC(=O)[C@H](C)NC(=O)[C@H](CCC(=O)O)NC(=O)[C@H](CCC(N)=O)NC(=O)[C@H](Cc1c[nH]c2ccccc12)NC(=O)[C@H](CCCNC(=N)N)NC(=O)[C@@H](C)N)C(=O)N[C@@H](Cc1ccccc1)C(=O)N[C@@H](CCC(=O)O)C(=O)N1CCC[C@H]1C(=O)N[C@@H](CCCNC(=N)N)C(=O)O` [compound 244] (HELM PEPTIDE1{[dA].R.W.Q.E.A.G.Y.I.F.E.P.R}$$$$V2.0), `CC[C@H](C)[C@H](NC(=O)[C@H](Cc1ccc(O)cc1)NC(=O)CNC(=O)[C@H](C)NC(=O)[C@H](CCC(=O)O)NC(=O)[C@H](CCC(N)=O)NC(=O)[C@H](Cc1c[nH]c2ccccc12)NC(=O)[C@H](CCCNC(=N)N)NC(=O)[C@@H](C)N)C(=O)N[C@@H](C)C(=O)N[C@@H](CCC(=O)O)C(=O)N1CCC[C@H]1C(=O)N[C@@H](CCCNC(=N)N)C(=O)N[C@@H](CCCCN)C(=O)N[C@@H](CC(C)C)C(=O)N[C@@H](C)C(=O)O` [compound 245] (HELM PEPTIDE1{[dA].R.W.Q.E.A.G.Y.I.A.E.P.R.K.L.A}$$$$V2.0) is lower in “Free Fatty Acid Levels in 3T3-L1 Adipocytes Expressed as a Percent of Isoproterenol Control: Percent of Control Value”: 90.3% for the first, 78.1% for the second.
